Reference: publication PMC11477209, “Toxicological Evaluation of Kaempferol and Linearolactone as Treatments for Amoebic Liver Abscess Development in Mesocricetus auratus” (International Journal of Molecular Sciences, 2024)
In brackets after ≈: the same amount, converted by molar mass.

Key:
CHO-K1 cells = assay: MTT cytotoxicity assay; type: cell-based, Chinese hamster; conditions: 24 h, MTT
BEAS-2B cells = assay: MTT cytotoxicity assay; type: cell-based, human; conditions: 24 h
[1] = test system: E. histolytica trophozoites (amoebic liver abscess); assay: Amoebic liver abscess (ALA) model, antiparasitic protocol; type: in vivo, Mesocricetus auratus
Excerpt: M. auratus was used as an animal model because the hamster is naturally susceptible to infection by E. histolytica and can develop amoebic colitis or extraintestinal complications such as an ALA [71]. In this context, the hamster can be used to search for new alternative therapeutic agents against amoebiasis. The hamsters were acquired from Charles River Laboratories Inc. (Wilmington, MA, USA) in 2017 by Centro de Investigación y de Estudios Avanzados del Instituto Politécnico Nacional ([…]-IPN). […] Male hamsters (sexually mature and homozygous) weighing 95 ± 5 g and ≈10 weeks old were selected for the experiments. They were maintained in aseptic conditions at 25 ± 1 °C, 50 ± 3% humidity, a 12 h photoperiod, and ad libitum access to a standard diet (LabDiet; Richmond, IN, USA) and water (Figure 5A). The hamsters were housed in polycarbonate boxes (five per box), with an American Iron and Steel Institute (AISI) lid and wood shavings as bedding, in a controlled room of the Animal Production and Experimentation Unit (UPEAL) from […]-IPN (Figure 5A). Additionally, the health state of the hamsters and their adaptation to the new laboratory conditions were evaluated for 15 days to decrease their stress and anxiety levels. This study was carried out according to the Official Mexican Regulations (NOM-062-ZOO-1999) and NC3Rs ARRIVE [60, 72]. The protocol was approved by the Institutional Animal Care and Use Committee (Reg. No. 0183-16). Finally, the hamsters were not subjected to any previous experimental procedure or any additional treatment before beginning the experimental procedures (see File S1, NC3Rs ARRIVE Guidelines Checklist). Compounds that are prohibited and/or not recommended for use in animals by the American Veterinary Medical Association (Guidelines for the Euthanasia of Animals) were not used.
These experiments were performed with three independent biological replicates. For each replicate, twenty-five hamsters were randomly distributed (simple type) into five experimental groups (five animals per group). The sample size was determined based on the Organization for Economic Cooperation and Development (OECD) recommendations that establish the minimum number of individuals required for the tests so as not to sacrifice animals unnecessarily. Laparotomy was performed in aseptic conditions by using depilation, iodine solution, as well as sterile field cloths. Subsequently, an intra-hepatic puncture was made to deliver 1.5 × 10^6 virulent E. histolytica trophozoites in 100 μL of 1× PBS into the left hepatic lobe for ALA induction (Figure 5A-3). The injection site was immediately covered by applying a gel foam pad to maintain hemostasis. The abdominal layers were sutured discontinuously by single vertical stitches using Vicryl synthetic absorbable suture with a triangular pointed half circle needle. Irregular edges or folds in the surgical wound were eliminated to avoid tissue devitalization or possible infections. The development of a hepatic ALA was monitored for 4 days (Figure 5A-4).
(Figure 5B). The compounds were administered by the i.p. route because the peritoneal cavity presents rapid fluid absorption into the bloodstream, and initial biotransformation by the gastrointestinal tract is avoided. […] The hamsters were evaluated 24 h post-treatment to detect any signs of discomfort/pain or toxicity. The humane endpoint criteria used in this study were >20% body weight loss overnight, cachexia, recumbence, lethargy, respiratory distress, inability to reach food and water, lack of grooming, and ulceration around the surgical site, among others. Additionally, the weight of hamsters was determined at the beginning and end of the experiment with an electronic bascule (CS200, Ohaus; Parsippany, NJ, USA), and the ALA volume was calculated based on imaging (Figure 5B-1). […]

[2] = Paraclinical analysis (serum biochemistry, hematic biometry) in ALA hamsters; type: in vivo, Mesocricetus auratus
Experimental: Serum was obtained by centrifugation at 3500 rpm and frozen at −70 °C until analysis. Hematic biometry was performed in a hematology autoanalyzer system (BC-2300, Mindray; Shenzhen, China), and biochemical parameters were made on an automatic medical system (Prestige 24i, Tokyo Boeki; Kanagawa, Japan).

[3] = in vivo
Experimental: After blood samples were obtained, the hamsters were sacrificed with a lethal dose of sodium pentobarbital, followed by a cervical fracture. They were mounted on a dissecting board for the necropsy. A complete mid-laparotomy was performed to remove the lungs, spleen, heart, liver, and kidneys. An excisional biopsy was performed to recover the ALA lesions for morphometric analysis. The organs and ALA lesions were rinsed with 1× PBS, weighed, and adherent tissue was removed. […] Later, the inclusion protocol was performed to obtain histological sections (3 μm thick) with a rotatory microtome (RM2125-RTS, Leica; Wetzlar, Germany). Tissue slices were stained with hematoxylin-eosin (Merck; Rahway, NJ, USA), mounted on coverslips with Entellan^TM-New (Merck; Rahway, NJ, USA), and observed with optical microscopy (Eclipse 80i, Nikon; Tokio, Japan).

[4] = test system: E. histolytica trophozoites (virulent HM-1 strain)
[5] = Chinese hamster (CHO-K1) and human (BEAS-2B)
[6] = test system: E. histolytica trophozoites (virulent HM-1 strain); assay: microbe, parasite or virus in culture; conditions: Entamoeba histolytica, 48 h, read-out: IC50 HM-1, 48 h, flow cytometry

Cc1ncc([N+](=O)[O-])n1CCO [MTZ, metronidazole, reference compound]
biological activity symbol on IC50 CHO-K1 (CHO-K1 cells): - | IC50 (CHO-K1 cells; Cricetulus griseus, CHO-K1, read-out: IC50 CHO-K1): 500 µg/mL (≈ 2920 µM) | biological activity symbol on IC50 BEAS-2B (BEAS-2B cells): - | IC50 (BEAS-2B cells; Homo sapiens, BEAS-2B): 400 µg/mL (≈ 2340 µM) | Edges ([1]; ALA characteristics): Regular and well defined | Leukocyte infiltrate ([1]; ALA characteristics): − | Liquid ([1]; ALA characteristics): − | Morphology ([1]; ALA characteristics): Round | ALA Volume ([1]; MRI, i.p. 4 days): 528 ± 183.5 * mm^3 | MRI T1 signal of ALA ([1]; T1): Intermediate intensity | MRI T2 signal of ALA ([1]; T2): hypointense | ALA Weight ([1]; i.p. 4 days, KP 5, LL 10, MTZ 10 mg/kg/day): 0.33 ± 0.32 g | MPV ([2]; blood, ALA hamsters, i.p. 4 days): 8 ± 0.1 fL | TB/AL ratio ([2]; drug toxicity ratio): 0.38 ± 0.16 | neutrophil/lymphocyte ratio ([2]; hematic ratio): 1.15 ± 0.7 | Band neutrophils ([2]; in vivo): 0% | Basophils ([2]; in vivo): 0% | Eosinophils ([2]; in vivo): 0% | Immature forms ([2]; in vivo): 0% | Lymphocytes ([2]; in vivo): 50 ± 13% | Monocytes ([2]; in vivo): 0% | Segmented neutrophils ([2]; in vivo): 51 ± 13% | ALT (GPT) ([2]; in vivo, ip): 135 ± 23 U/L | AST (GOT) ([2]; in vivo, ip): 81 ± 24 U/L | Albumin ([2]; in vivo, ip): 1.9 ± 0.3 g/dL | Alkaline phosphatase ([2]; in vivo, ip): 230 ± 11 U/L | Cholesterol ([2]; in vivo, ip): 116 ± 9.1 mg/dL | Creatinine ([2]; in vivo, ip): 1.01 ± 0.2 mg/dL | Direct bilirubin ([2]; in vivo, ip): 0.5 ± 0.1 mg/dL | Erythrocytes ([2]; in vivo, ip): 3.7 ± 0.2 x10 6/mm3 | GGT ([2]; in vivo, ip): 5.5 ± 2.3 U/L | Glucose ([2]; in vivo, ip): 161 ± 21 mg/dL | Hematocrit ([2]; in vivo, ip): 35 ± 2.6% | Hemoglobin ([2]; in vivo, ip): 14. 7 ± 1.2 g/dL | Indirect bilirubin ([2]; in vivo, ip): 0.20 ± 0.1 mg/dL | Leukocytes ([2]; in vivo, ip): 7.7 ± 2.6 x100/mm3 | MCH ([2]; in vivo, ip): 40 ± 1.6 pg | MCHC ([2]; in vivo, ip): 43 ± 1.4 g/dL | MCV ([2]; in vivo, ip): 94 ± 2.2 fL | PCT ([2]; in vivo, ip): 0.4 ± 0.1% | PDW ([2]; in vivo, ip): 11 ± 0.4 fL | Platelets ([2]; in vivo, ip): 536 ± 148 x106/μL | RDW-CV ([2]; in vivo, ip): 25.8 ± 3.3 fL | RDW-SD ([2]; in vivo, ip): 111 ± 12 fL | Total bilirubin ([2]; in vivo, ip): 0.7 ± 0.3 mg/dL | Total protein ([2]; in vivo, ip): 5.3 ± 0.9 g/dL | Triglycerides ([2]; in vivo, ip): 280 ± 75 mg/dL | Urea ([2]; in vivo, ip): 41.2 ± 1.4 mg/dL | BUN/CR ratio ([2]; kidney damage ratio): 19.6 ± 3.8 | urea/CR ratio ([2]; kidney damage ratio): 42 ± 8.15 | AST/ALT ratio (De Ritis ratio) ([2]; liver injury ratio): < 1 | Heart largest diameter [3]: 1.08 ± 0.04 cm | Heart weight [3]: 0.38 ± 0.1 g | Kidneys largest diameter [3]: 1.3 ± 0.08 cm | Kidneys weight [3]: 0.52 ± 0.0 g | Liver largest diameter [3]: 4 ± 0.15 cm | Liver weight [3]: 5.76 ± 1.4 g | Lungs largest diameter [3]: 2.5 ± 0.2 cm | Lungs weight [3]: 0.68 ± 0.05 g | Spleen largest diameter [3]: 3.3 ± 0.3 cm | Spleen weight [3]: 0.2 ± 0.05 g | apoptotic trophozoites [4]: 2% | decrease of size and granularity of the cell population [4]: 52% | necrotic trophozoites [4]: 62.2% | biological activity symbol on IC50 HM-1 ([4]; 48 h): ++ | LD50 (Theoretical) [5]: 1026 mg/kg | Survival rate (ALA hamsters, i.p. 4 days): 100% | Toxicity signs (in vivo, ip): None | IC50 [6]: 0.16 µg/mL (≈ 0.935 µM)
